According to US5849735A, “Tricyclic benzazepine vasopressin antagonists” (American Cyanamid Company, priority 1995, dated 1998):

What was measured:
vasopressin V2 = test: Vasopressin V2 Antagonist Activity in Conscious Hydrated Rats; format: in vivo, rat; conditions: oral 10 mg/kg, N=2, AVP challenge
Protocol: Vasopressin V2 Antagonist Activity in Conscious Hydrated Rats Conscious hydrated rats are treated with compounds under study from 0.1 to 100 mg/kg orally or vehicle. Two to four rats are used for each compound. One hour later, arginine vasopressin (AVP, antidiuretic Hormone, ADH) dissolved in peanut oil is administered at […] intraperitoneally. Two rats in each test would not receive arginine vasopressin but only the vehicle (peanut oil) to serve as water-loading control. Twenty minutes later each rat is given 30 mL/kg of deionized water orally by gavage and is placed individually in a metabolic cage equipped with a funnel and a graduated glass cylinder to collect urine for four hours. Urine volume is measure and osmolality analyzed by use of a Fiske One-Ten osmometer (Fiske Assoc., Norwood, Mass., USA). Urinary sodium, potassium, and chloride are analyzed by use of ion-specific electrodes in a Beckman E3 (Electrolye 3) Analyzer. In the following results, […] and decreased osmolality relative to AVP-control indicates activity.

[1] = target: T1, oxytocin receptor (rat uteri) (Rattus norvegicus, UniProt P70536); test: Oxytocin Receptor Binding; design: species or system rat (Sprague-Dawley); conditions: for IC50: [3H]oxytocin displacement
T1 construct: The uteri are dissected out, cleaned of fat and connective tissues; from tissue; host or cells: uteri of diethylstilbestrol-treated female Sprague-Dawley rats
T1 sequence (P70536 1-388): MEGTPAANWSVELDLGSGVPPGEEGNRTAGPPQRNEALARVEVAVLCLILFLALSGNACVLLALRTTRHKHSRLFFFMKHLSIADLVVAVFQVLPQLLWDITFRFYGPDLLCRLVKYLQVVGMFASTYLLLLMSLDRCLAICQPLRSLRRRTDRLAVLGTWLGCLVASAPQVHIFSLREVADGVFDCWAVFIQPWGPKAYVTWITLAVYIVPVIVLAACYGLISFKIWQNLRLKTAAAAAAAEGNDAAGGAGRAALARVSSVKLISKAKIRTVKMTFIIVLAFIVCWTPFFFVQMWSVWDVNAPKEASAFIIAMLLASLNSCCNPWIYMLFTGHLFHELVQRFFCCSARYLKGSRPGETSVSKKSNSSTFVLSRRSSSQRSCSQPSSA
Protocol: Oxytocin Receptor Binding
Female Sprague-Dawley rats weighing approximately 200-250 g are injected intramuscularly (i.m.) with 0.3 mg/kg of body weight of diethylstilbestrol (DES). The rats are sacrificed 18 hours later under pentobarbital anesthesia. The uteri are dissected out, cleaned of fat and connective tissues and rinsed in 50 ml of normal saline. The tissue pooled from six rats is homogenized in 50 ml of […] Tris. HCl, containing 0.5 mM dithiothreitol and 1.0 mM EDTA, adjusted to pH 7.4, using a polytron at setting 6 with three passes of 10 sec each. The homogenate is passed through two (2) layers of cheesecloth and the filtrate centrifuged at 1000×g for 10 minutes. The clear supernatant is removed and recentrifuged at 165,000×g for 30 minutes. The resulting pellet containing the oxytocin receptors is resuspended in 50.0 mM Tris.HCl containing 5.0 mM MgCl2 at pH 7.4, to give a protein concentration of 2.5 mg/ml of tissue suspension. This preparation is used in subsequent binding assays with [^3 H]oxytocin.
Binding of 3,5-[^3 H]Oxytocin ([^3 H]OT) to its receptors is done in microtiter plates using [^3 H]OT, at various concentrations, in an assay buffer of 50.0 mM Tris.HCI, pH 7.4 and containing 5.0 mM MgCl2, and a mixture of protease inhibitors: BSA, 0.1 mg; aprotinin, 1.0 mg; 1,10-phenanthroline, 2.0 mg; […], 10.0 mg; and PMSF, 0.3 mg per 100 ml of buffer solution. Non-specific binding is determined in the presence of 1.0 uM unlabeled OT. The binding reaction is terminated after 60 minutes, at 22° C., by rapid filtration through glass fiber filters using a Brandel® cell harvester (Biomedical Research and Development Laboratories, Inc., Gaithersburg, Md.). Competition experiments are conducted at equilibrium using 1.0 nM [^3 H]OT and varying the concentration of the displacing agents. The concentrations of agent displacing 50% of [^3 H]OT at its sites (IC50) are calculated by a computer assisted LUNDON-2 program (LUNDON SOFTWARE INC., Ohio, USA).

Compound	Osmolality (vasopressin V2) [MOsm/kg]	Urine Volume (vasopressin V2) [ml/4 hrs]	IC50 [1] [nM]	inhibition at 10 µM [1] [%]	inhibition at 1 µM [1] [%]
Cc1ccc(F)cc1C(=O)Nc1ccc(C(=O)N2Cc3sccc3Cc3ccccc32)cn1 [Example 2, N-[5-[(9,10-Dihydro-4H-thieno[2,3-c][1]benzazepin-9-yl)carbonyl]-2-pyridinyl]-5-fluoro-2-methylbenzamide]	591	16.5	1100	86	–
Cc1ccc(F)cc1C(=O)Nc1ccc(C(=O)N2Cc3ccccc3Oc3ncccc32)cn1 [Example 4, N-[5-(Pyrido[2,3-b][1,4]benzoxazepin-5(6H)-ylcarbonyl)-2-pyridinyl]-5-fluoro-2-methylbenzamide]	878	6.8	–	20	–
CCCCOc1ccc(C(=O)N2Cc3ccccc3Cc3ccccc32)cc1 [Example 24]	1492	4.3	1800	97	–
O=C(c1ccc(-c2ccccc2)cc1)N1Cc2ccccc2Oc2ccccc21 [Example 26, 10-([1,1'-Biphenyl]-4-ylcarbonyl)-10,11-dihydrodibenz[b,f][1,4]oxazepine]	1058	4.5	2500	73	–
O=C(c1ccc(-c2ccccc2)cc1)N1Cc2sccc2Cc2ccccc21 [Example 27, 9-([1,1'-Biphenyl]-4-ylcarbonyl)-9,10-dihydro-4H-thieno[2,3-c][1]benzazepine]	1317	3.3	–	–	83
O=C(c1ccccc1)c1ccc(C(=O)N2Cc3ccccc3Oc3ccccc32)cc1 [Example 32, 10-(4-Benzoylbenzoyl)-10,11-dihydrodibenz[b,f][1,4]oxazepine]	726	9.3	1800	88	–
Cc1ccc(F)cc1C(=O)Nc1ccc(C(=O)N2Cc3ccccc3CCc3ccccc32)cn1 [Example 45]	979	6.6	–	–	54
